Results from ChEMBL document CHEMBL1201862, “PubChem BioAssay data set” (2004).
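Grown in 96-well plates, cells were treated for 48 hours with each compound at five concentrations. Insufficient inhibition: endpoint recorded as highest concentration tested. The concentration for 50% growth inhibition is given as GI50.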 Active and inactive are the calls of the source. Cut-off read from the data, not from the text of the source: active = GI50 up to about 1.1 µM and inactive = higher.

Key:
Experiment in all cases: inhibition of tumour cell growth, NCI panel, 48 h
A549 = system: A549
CAKI-1 = system: CAKI-1
HCT-116 = system: HCT-116
HCT-15 = system: HCT-15
Hs-578T = system: Hs-578T
IGROV-1 = system: IGROV-1
LOX IMVI = system: LOX IMVI
MDA-MB-231 = system: MDA-MB-231
NCI-H226 = system: NCI-H226
NCI-H460 = system: NCI-H460
OVCAR-5 = system: OVCAR-5
PC-3 = system: PC-3
RPMI-8226 = system: RPMI-8226
SF-268 = system: SF-268
SR = system: SR
SW-620 = system: SW-620
T47D = system: T47D
U-251 = system: U-251
CCRF-CEM = system: CCRF-CEM
NCI-H522 = system: NCI-H522

Structure (SMILES)	GI50 (A549)	GI50 (CAKI-1)	GI50 (HCT-116)	GI50 (HCT-15) [µM]	GI50 (Hs-578T)	GI50 (IGROV-1)	GI50 (LOX IMVI)	GI50 (MDA-MB-231)	GI50 (NCI-H226)	GI50 (NCI-H460)	GI50 (OVCAR-5)	GI50 (PC-3)	GI50 (RPMI-8226)	GI50 (SF-268)	GI50 (SR)	GI50 (SW-620)	GI50 (T47D)	GI50 (U-251)	GI50 (CCRF-CEM)	GI50 (NCI-H522)
CN(C)C(=N)/N=C(\N)Nc1cccc(Cl)c1	> 100 µM (inactive)	48.2 µM (inactive)	85.7 µM (inactive)	> 100	> 100 µM (inactive)	24.5 µM (inactive)	35.9 µM (inactive)	46.7 µM (inactive)	22.3 µM (inactive)	91.6 µM (inactive)	> 100 µM (inactive)	41.8 µM (inactive)	> 100 µM (inactive)	35.4 µM (inactive)	53.2 µM (inactive)	> 100 µM (inactive)	24.8 µM (inactive)	> 100 µM (inactive)		
Cc1cc(C(C)(C)C)c(OCCCN2CCOCC2)c(C(C)(C)C)c1	17.5 µM (inactive)	19.1 µM (inactive)	16.7 µM (inactive)	18	20.7 µM (inactive)	19.5 µM (inactive)	20.6 µM (inactive)	17.4 µM (inactive)		30.9 µM (inactive)	17.9 µM (inactive)	15.8 µM (inactive)	14.1 µM (inactive)	18.7 µM (inactive)	17.7 µM (inactive)	16.9 µM (inactive)	15.1 µM (inactive)	18 µM (inactive)	16.6 µM (inactive)	17.9 µM (inactive)
CC(=O)Nc1nc2c(=O)c3ccccc3sc2s1	> 100 µM (inactive)	> 100 µM (inactive)	> 100 µM (inactive)	> 100	> 100 µM (inactive)	> 100 µM (inactive)		> 100 µM (inactive)	> 100 µM (inactive)	> 100 µM (inactive)	> 100 µM (inactive)	> 100 µM (inactive)	> 100 µM (inactive)	> 100 µM (inactive)			> 100 µM (inactive)		> 100 µM (inactive)	
CCc1ccc2c(c1)CC1(C2)Cc2cc3c(cc2C1)C(=O)CC3 (configuration not stated)	24.2 µM (inactive)		12.1 µM (inactive)	23.9	> 100 µM (inactive)	17.3 µM (inactive)	15.4 µM (inactive)	21.2 µM (inactive)	19.7 µM (inactive)		27.5 µM (inactive)	16.3 µM (inactive)	18.5 µM (inactive)				12.1 µM (inactive)	18.8 µM (inactive)	2.94 µM (inactive)	20.3 µM (inactive)
CN(C)/C=N\c1nncc2[nH]nnc12	> 100 µM (inactive)	> 100 µM (inactive)	> 100 µM (inactive)	> 100	> 100 µM (inactive)	> 100 µM (inactive)		> 100 µM (inactive)	> 100 µM (inactive)	> 100 µM (inactive)	> 100 µM (inactive)	> 100 µM (inactive)	> 100 µM (inactive)	> 100 µM (inactive)	> 100 µM (inactive)	> 100 µM (inactive)	> 100 µM (inactive)	> 100 µM (inactive)	26.7 µM (inactive)	
CCn1c2ccccc2c2cc(NC(=O)c3c(C)nc(O)nc3NCCNCCO)ccc21	> 100 µM (inactive)	> 100 µM (inactive)	> 100 µM (inactive)	> 100	> 100 µM (inactive)	> 100 µM (inactive)	> 100 µM (inactive)	> 100 µM (inactive)	> 100 µM (inactive)	> 100 µM (inactive)	> 100 µM (inactive)	> 100 µM (inactive)		> 100 µM (inactive)		> 100 µM (inactive)	> 100 µM (inactive)	> 100 µM (inactive)	> 100 µM (inactive)	> 100 µM (inactive)
O=C1CC(c2cccc(Cl)c2)n2cccc21 (configuration not stated)	> 100 µM (inactive)	54.6 µM (inactive)	> 100 µM (inactive)	> 100	31.8 µM (inactive)		> 100 µM (inactive)	> 100 µM (inactive)	> 100 µM (inactive)		> 100 µM (inactive)	49.5 µM (inactive)	> 100 µM (inactive)	74.6 µM (inactive)	90.2 µM (inactive)	> 100 µM (inactive)	44.2 µM (inactive)	> 100 µM (inactive)	> 100 µM (inactive)	
Cc1ccc(/N=N/NCCCCN)cc1	8.75 µM (inactive)	> 100 µM (inactive)	> 100 µM (inactive)	> 100	> 100 µM (inactive)	> 100 µM (inactive)	10.1 µM (inactive)	> 100 µM (inactive)	> 100 µM (inactive)		> 100 µM (inactive)		5.86 µM (inactive)	> 100 µM (inactive)	> 100 µM (inactive)	> 100 µM (inactive)	> 100 µM (inactive)		9.64 µM (inactive)	> 100 µM (inactive)
COc1ccc(NC(=S)NC(=O)c2ccc3c(c2)Sc2ccccc2O3)c([N+](=O)[O-])c1	42.1 µM (inactive)	39.1 µM (inactive)	28.9 µM (inactive)	24	14 µM (inactive)	18.7 µM (inactive)	> 100 µM (inactive)	22.9 µM (inactive)	> 100 µM (inactive)	43.9 µM (inactive)	> 100 µM (inactive)	43.1 µM (inactive)		19.4 µM (inactive)	28.8 µM (inactive)	0.387 µM (active)	22.4 µM (inactive)	20.2 µM (inactive)	36.4 µM (inactive)	14.9 µM (inactive)
CCOC(=O)CCC(C(=O)OCC)n1nnc2cc(Nc3c(C)[n+]([O-])c4cc(F)c(OCC)cc4[n+]3[O-])ccc21 (configuration not stated)	> 100 µM (inactive)	> 100 µM (inactive)	> 100 µM (inactive)	> 100	30.3 µM (inactive)	> 100 µM (inactive)	> 100 µM (inactive)		> 100 µM (inactive)	> 100 µM (inactive)	> 100 µM (inactive)	> 100 µM (inactive)	> 100 µM (inactive)	25.5 µM (inactive)	> 100 µM (inactive)	> 100 µM (inactive)	> 100 µM (inactive)	30.7 µM (inactive)	> 100 µM (inactive)	> 100 µM (inactive)
N#CC(c1ccccc1)N(CCc1ccccc1)C(=O)c1ccc(C(=O)N(CCc2ccccc2)C(C#N)c2ccccc2)cc1 (configuration not stated)	26.7 µM (inactive)	30.6 µM (inactive)	14.3 µM (inactive)	18.6	12.9 µM (inactive)	23.9 µM (inactive)	17.9 µM (inactive)	24.6 µM (inactive)	17 µM (inactive)	18.5 µM (inactive)	19.8 µM (inactive)	21.7 µM (inactive)		22 µM (inactive)		22.9 µM (inactive)	16.9 µM (inactive)	24.3 µM (inactive)	26.1 µM (inactive)	
Cc1c2c3cc(O)ccc3nc-2n(C)c2ccccc12	0.938 µM (active)		0.459 µM (active)	1.81	2.9 µM (inactive)	2.17 µM (inactive)			2.86 µM (inactive)	0.434 µM (active)	3.3 µM (inactive)	1.75 µM (inactive)	2.34 µM (inactive)	1.62 µM (inactive)	0.782 µM (active)	0.497 µM (active)	2.68 µM (inactive)	0.838 µM (active)	0.743 µM (active)	
OC(c1ccccc1)(c1cccnc1)C(O)(c1ccccc1)c1cccnc1 (configuration not stated)	> 100 µM (inactive)	> 100 µM (inactive)	> 100 µM (inactive)	> 100	> 100 µM (inactive)	> 100 µM (inactive)		> 100 µM (inactive)	69.7 µM (inactive)	> 100 µM (inactive)	> 100 µM (inactive)	> 100 µM (inactive)	> 100 µM (inactive)	> 100 µM (inactive)		> 100 µM (inactive)	> 100 µM (inactive)	> 100 µM (inactive)	> 100 µM (inactive)	6.97 µM (inactive)
C#CCn1c(=O)ccn(/C(=C\C(=O)OCC)C(=O)OCC)c1=O	22.8 µM (inactive)	1.03 µM (active)	5.53 µM (inactive)	1.51	27.7 µM (inactive)	9.08 µM (inactive)	12.2 µM (inactive)	18.1 µM (inactive)	19.9 µM (inactive)	2.63 µM (inactive)	13.5 µM (inactive)	15 µM (inactive)	2.73 µM (inactive)	19.9 µM (inactive)	5.02 µM (inactive)	1.68 µM (inactive)	3.52 µM (inactive)	14.3 µM (inactive)	0.381 µM (active)	
C=C(C)[C@H]1[C@@H]2OC(=O)[C@H]1[C@]1(O)C[C@H]3OC34C(=O)O[C@H]2[C@@]41C.CC(C)(O)[C@H]1[C@@H]2OC(=O)[C@H]1[C@]1(O)C[C@H]3OC34C(=O)O[C@H]2[C@@]41C (some centres not stated)	> 100 µM (inactive)	> 100 µM (inactive)	> 100 µM (inactive)	> 100	> 100 µM (inactive)	> 100 µM (inactive)	> 100 µM (inactive)	> 100 µM (inactive)	> 100 µM (inactive)	> 100 µM (inactive)	> 100 µM (inactive)	> 100 µM (inactive)	> 100 µM (inactive)	> 100 µM (inactive)		> 100 µM (inactive)	> 100 µM (inactive)	> 100 µM (inactive)	> 100 µM (inactive)	> 100 µM (inactive)
O=c1[nH]c2ccccc2c2nc3ccccc3n12	33.2 µM (inactive)	6.37 µM (inactive)	19.1 µM (inactive)	> 100	65.6 µM (inactive)	0.61 µM (active)	> 100 µM (inactive)	16.9 µM (inactive)		2.54 µM (inactive)	> 100 µM (inactive)	> 100 µM (inactive)	> 100 µM (inactive)	53.7 µM (inactive)		61.2 µM (inactive)	> 100 µM (inactive)	46.1 µM (inactive)	> 100 µM (inactive)	7.21 µM (inactive)
